We go through ten compounds from ChEMBL document CHEMBL1127581, “Evolution of a novel series of [(N,N-dimethylamino)propyl]- and piperazinylbenzanilides as the first selective 5-HT1D antagonists” (J Med Chem, 1994).

The species named for one experiment is Canis familiaris. Kind of experiment: Tested in vitro for its ability to block 5-HT induced contractile responses in dog isolated saphenous vein. The experiment is classed as functional, Canis lupus familiaris.
Experiment [1] is filed under the species Oryctolagus cuniculus. Briefly: Tested for its ability to block 5-HT2A induced contractile responses in rabbit isolated aorta. The experiment is classed as functional.
Experiment [2] concerns the target T1, 5-hydroxytryptamine receptor 1A (Rattus norvegicus, UniProt P19327).
T1 sequence (P19327 whole entry): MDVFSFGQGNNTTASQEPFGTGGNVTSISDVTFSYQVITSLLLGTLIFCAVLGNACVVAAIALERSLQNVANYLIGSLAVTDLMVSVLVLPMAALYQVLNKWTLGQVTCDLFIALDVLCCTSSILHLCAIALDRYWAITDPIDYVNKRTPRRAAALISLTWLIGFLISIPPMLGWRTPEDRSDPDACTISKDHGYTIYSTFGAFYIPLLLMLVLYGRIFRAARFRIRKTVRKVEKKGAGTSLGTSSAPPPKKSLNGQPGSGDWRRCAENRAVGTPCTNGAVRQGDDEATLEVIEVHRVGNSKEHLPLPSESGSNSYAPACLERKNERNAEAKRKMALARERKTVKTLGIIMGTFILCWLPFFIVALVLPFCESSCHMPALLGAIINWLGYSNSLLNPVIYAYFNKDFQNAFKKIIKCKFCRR
Briefly: Binding affinity towards 5-hydroxytryptamine 1A receptor in rat hippocampus using [3H]8-OH-DPAT. The experiment is classed as tissue-based.

Experiment [3] concerns the target 5-hydroxytryptamine receptor 1D (Cavia porcellus) (UniProt Q60484). Kind of experiment: Compound at oral dose of 45 mg/kg was tested for percent inhibition against 5-hydroxytryptamine 1D receptor causes hypothermia in guinea pig. The experiment is classed as functional, organism-based. Also on record: dose 45 mg/kg.
The target of experiment [4] is 5-hydroxytryptamine receptor 1D (Cavia porcellus, UniProt Q60484). Briefly: In vitro binding affinity towards 5-hydroxytryptamine 1D receptor in guinea-pig striatum in presence of BMY-7378 and mesulergine. It is filed as tissue-based.
Sequence of 5-hydroxytryptamine receptor 1D (Q60484 whole entry): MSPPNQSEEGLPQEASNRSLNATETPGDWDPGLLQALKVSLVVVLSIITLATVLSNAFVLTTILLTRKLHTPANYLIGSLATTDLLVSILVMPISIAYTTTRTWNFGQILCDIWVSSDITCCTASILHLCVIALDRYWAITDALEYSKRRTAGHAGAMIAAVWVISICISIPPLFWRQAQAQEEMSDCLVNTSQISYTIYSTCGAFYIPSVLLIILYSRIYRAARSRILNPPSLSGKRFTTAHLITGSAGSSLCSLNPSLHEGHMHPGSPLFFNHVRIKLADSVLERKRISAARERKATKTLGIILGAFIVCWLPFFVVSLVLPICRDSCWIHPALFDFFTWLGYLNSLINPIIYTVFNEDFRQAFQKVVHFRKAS
The target of experiment [5] is 5-hydroxytryptamine receptor 1D (Cavia porcellus) (UniProt Q60484). Kind of experiment: Oral effective dose against hypothermia in the guinea pig caused by stimulation of central 5-hydroxytryptamine 1D receptors by the agonist GR-46611. The experiment is classed as functional.
Sequence of 5-hydroxytryptamine receptor 1D (Cavia porcellus) (Q60484 whole entry): as above
The target is the same in experiment [6]. Briefly: Compound at 3 mg/kg was tested for the inhibition of hypothermia in the guinea pig caused by stimulation of central 5-hydroxytryptamine 1D receptors by the agonist GR-46611. The experiment is classed as functional, organism-based. Set-up: dose 3 mg/kg.
For experiment [7] the target is unchanged. Kind of experiment: Compound at 45 mg/kg was tested for the inhibition of hypothermia in the guinea pig caused by stimulation of central 5-hydroxytryptamine 1D receptors by the agonist GR-46611. It is filed as functional, organism-based. Set-up: dose 45 mg/kg.
The target is the same in experiment [8]. Briefly: Oral effective dose against hypothermia in the guinea pig caused by stimulation of central 5-hydroxytryptamine 1D receptors by the agonist GR-46611;range is 0.2-1.2. The experiment is classed as functional.
Experiment [9] concerns the target 5-hydroxytryptamine receptor 1B (Rattus norvegicus, UniProt P28564). Briefly: In vitro binding affinity towards 5-hydroxytryptamine 1B receptor in rat striatal membrane with [125I]- iodocyanopindolol. It is filed as cell membranes, Striatum.
The species entered for experiment [10] is Oryctolagus cuniculus. Kind of experiment: Tested in vitro for its ability to block 5-HT2A induced contraction of rabbit isolated aorta. It is filed as functional.
Experiment [11] concerns the target 5-hydroxytryptamine receptor 1D (Cavia porcellus) (UniProt Q60484). Kind of experiment: Compound at 50 mg/kg was tested for the inhibition of hypothermia in the guinea pig caused by stimulation of central 5-hydroxytryptamine 1D receptors by the agonist GR-46611. The experiment is classed as functional, organism-based. Also on record: dose 50 mg/kg.
Experiment [12] shares this target. Kind of experiment: Oral effective dose against hypothermia in the guinea pig caused by stimulation of central 5-hydroxytryptamine 1D receptor by the agonist GR-46611. The experiment is classed as functional.
The target of experiment [13] is T1, 5-hydroxytryptamine receptor 1A. Briefly: Binding affinity towards 5-hydroxytryptamine 1A receptor in rat hippocampus with [3H]8-OH-DPAT. The experiment is classed as tissue-based.
For experiment [14], the target named is 5-hydroxytryptamine receptor 1D (Cavia porcellus) (UniProt Q60484). Briefly: Oral effective dose against hypothermia in the guinea pig caused by stimulation of central 5-hydroxytryptamine 1D receptors by the agonist GR-46611; range is 2-9. The experiment is classed as functional.

Each structure is given as a SMILES string. Some results are limits rather than exact numbers.

Sequence of 5-hydroxytryptamine receptor 1B (P28564 whole entry): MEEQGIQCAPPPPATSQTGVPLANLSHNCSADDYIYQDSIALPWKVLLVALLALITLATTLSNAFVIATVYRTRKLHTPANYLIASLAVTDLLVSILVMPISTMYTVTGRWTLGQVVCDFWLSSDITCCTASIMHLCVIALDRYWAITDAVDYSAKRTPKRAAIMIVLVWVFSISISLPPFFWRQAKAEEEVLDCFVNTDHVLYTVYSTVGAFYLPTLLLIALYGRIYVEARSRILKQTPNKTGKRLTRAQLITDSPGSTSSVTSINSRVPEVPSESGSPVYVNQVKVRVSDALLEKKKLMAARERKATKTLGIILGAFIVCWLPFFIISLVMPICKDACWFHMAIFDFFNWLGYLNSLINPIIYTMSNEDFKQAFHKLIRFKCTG

What is called pKB is −log10 of the KB, conventionally taken in molar units. A low value points to a large KB. On to `CCOc1ccc(NC(=O)c2ccc(OC)c(CCCN(C)C)c2)cc1`, for which the pKB came out at 6.9 in the experiment filed under Canis familiaris and 6.2 in the experiment filed under Oryctolagus cuniculus [1].
The term Ki denotes the equilibrium dissociation constant of an inhibitor or competing ligand from its target. The inhibition is how much of the control response was suppressed. Higher therefore signals strong suppression. As usually defined, the ED50 is the midpoint of the dose-response relation. Low readings indicate an effect at a small dose, high ones a need for a large dose. For `COc1ccc(C(=O)Nc2ccc(-c3ccc(C=O)cc3C)cc2)cc1CCCN(C)C`, the figures for the inhibition constant (Ki) in [2] and in experiment [4] were 5010 nM and 6.31 nM, respectively. In [3], this compound displayed an inhibition below 30%. In experiment [5], this compound showed a median effective dose (ED50) of 45 mg/kg. Further, the negative logarithm of the KB (pKB) in the experiment filed under Canis familiaris amounted to 8.4; in the experiment filed under Oryctolagus cuniculus [1], 6.3.
Turning to `COCCOC(=O)c1ccc(-c2ccc(NC(=O)c3ccc(OC)c(CCCN(C)C)c3)cc2)c(C)c1`, the inhibition in experiment [6] was 66%; in experiment [7] it was 55%. In addition, the Ki in experiment [4] is 3.16 nM. Further, the 50% effective dose (ED50) in [5] was 45 mg/kg. The pKB in the experiment listed under Canis familiaris stood at 8.4; in the experiment listed under Oryctolagus cuniculus [1], 6.2.
For the compound `COc1ccc(C(=O)Nc2ccc(-c3ccc(-c4noc(C)n4)cc3C)cc2)cc1N1CCN(C)CC1`, the inhibition constant Ki in [2] was 1260 nM; in experiment [4], 6.31 nM; in experiment [9] it was 6.31 nM. The compound also yielded a median effective dose (ED50) in experiment [8] of 0.5 mg/kg. Also, the figures for the pKB in the experiment filed under Canis familiaris and in the experiment listed under Oryctolagus cuniculus [10] were 8.2 and 7.8, respectively.
With `COc1ccc(C(=O)Nc2ccc(-c3ccc(C(=O)O)cc3C)cc2)cc1CCCN(C)C`, the results for the Ki in experiment [2] and in experiment [4] were above 10000 nM and 31.6 nM, respectively. The negative logarithm of the KB (pKB) in the experiment listed under Canis familiaris was found to be 8.7; in the experiment listed under Oryctolagus cuniculus [1] it was 5.7.
With `COc1ccc(C(=O)Nc2ccc(-c3ccncc3)cc2)cc1CCCN(C)C`, the inhibition constant (Ki) in experiment [2] was 20000 nM; in experiment [4], 10 nM. For the same compound, the inhibition in experiment [11] is below 30%. Further, the pKB in the experiment listed under Canis familiaris came out at 7.8; in the experiment listed under Oryctolagus cuniculus [1], 6.3.
For the compound `COc1ccc(NC(=O)c2ccc(-c3ccc(C(=O)N(C)C)cc3C)cc2)cc1N1CCN(C)CC1`, the inhibition constant Ki in [2] is 251 nM; in experiment [4] it was 5.01 nM; in experiment [9], 6.31 nM. In experiment [12], this compound yielded an ED50 of 0.67 mg/kg. The negative-log KB (pKB) turned out to be 9.2 in the experiment listed under Canis familiaris and 4.9 in the experiment filed under Oryctolagus cuniculus [10].
Regarding `COc1ccc(NC(=O)c2ccc(-c3ccncc3)cc2)cc1N1CCN(C)CC1`, the Ki in [13] was 1260 nM; in [4] it was 5.01 nM. In [14], it took a dose of 5 mg/kg to reach the 50% effect level (ED50). Further, the pKB in the experiment listed under Canis familiaris was 8; in the experiment filed under Oryctolagus cuniculus [10], 6.5.
Take `COc1ccc(C(=O)Nc2ccc(-c3ccncc3)cc2)cc1N1CCN(C)CC1`: in [4], the Ki was 3.16 nM. This compound gave a median effective dose (ED50) in [5] above 45 mg/kg. Also, the figures for the pKB in the experiment listed under Canis familiaris and in the experiment filed under Oryctolagus cuniculus [10] were 7.9 and 6.5, respectively.
In the case of `COc1ccc(C(=O)Nc2ccc(-c3ccc(CO)cc3C)cc2)cc1CCCN(C)C`, the inhibition in [7] is 52%. The compound further displayed an ED50 in experiment [5] of 45 mg/kg. The pKB in the experiment filed under Canis familiaris was 8.5; in the experiment filed under Oryctolagus cuniculus [1], 5.9.
